Data: article PMC9085577, “Discovery of a Potent and Orally Active Dual GPBAR1/CysLT1R Modulator for the Treatment of Metabolic Fatty Liver Disease” (Frontiers in Pharmacology, 2022)

System: liver transcriptome
Assay: AmpliSeq liver transcriptome of HFD-F mice
Format: in vivo
Conditions: liver, HFD-F + compound 2 vs HFD-F
Source text: C57BL/6J male mice were fed a high fat diet (HFD) containing 59 KJ% fat plus 1% cholesterol, w/o sugar (ssniff ® EF R/M acc. D12330 mod. 22,7 ME/kg) and fructose (HFD-F) in drinking water (42 g/L), or normal chow diet for 61 days. Food intake was estimated as the difference of weight between the offered and the remnant amount of food at 3-days intervals. The food was provided as pressed pellets and the residual spillage was not considered. After 7 days, HFD-F mice were randomized to receive HFD-F alone or in combination with compound 2 (30 mg/kg/day) by gavage until the end of the experiment. Doses of each agent were chosen according to previously published data. Mice were housed under controlled temperature (22°C) and photoperiods (12:12-h light/dark cycle), allowed unrestricted access to standard mouse chow and tap water. The experimental protocol was approved by the Animal Care and Use Committee of the University of Perugia and by the Italian Minister of Health and Istituto Superiore di Sanità (Italy) and was in agreement with the European guidelines for use of experimental animals (permission n. 583/2017-PR). The general health of the animals was monitored daily by the Veterinarian in the animal facility. At the day of sacrifice, fed mice were deeply anesthetized with a mixture of tiletamine hypochloride and zolazepam hypochloride/xylazine at a dose of 50/5 mg/kg and sacrificed before 12 a.m.
High-quality RNA was extracted from mice livers, using the Direct-zol™ RNA MiniPrep w/Zymo-Spin™ IIC Columns (Zymo Research, Irvine, CA) according to the manufacturer’s instructions. RNA quality and quantity were assessed with the Qubit® RNA HS Assay Kit and a Qubit 3.0 fluorometer (Invitrogen, Carlsbad, CA) followed by agarose gel electrophoresis. Libraries were generated using the Ion AmpliSeq™ Transcriptome Mouse Gene Expression Core Panel and Chef-Ready Kit (Comprehensive evaluation of AmpliSeq transcriptome, a whole transcriptome RNA sequencing methodology) (Thermo Fisher Scientific, Waltham, MA). Briefly, 10 ng of RNA was reverse transcribed with SuperScript™ Vilo™ cDNA Synthesis Kit (Thermo Fisher Scientific, Waltham, MA) before library preparation on the Ion Chef™ instrument (Thermo Fisher Scientific, Waltham, MA). The resulting cDNA was amplified to prepare barcoded libraries using the Ion Code™ PCR Plate, and the Ion AmpliSeq™ Transcriptome Mouse Gene Expression Core Panel (Thermo Fisher Scientific, Waltham, MA), Chef-Ready Kit, according to the manufacturer’s instructions. Barcoded libraries were combined to a final concentration of 100 p.m., and used to prepare Template-Positive Ion Sphere™ (Thermo Fisher Scientific, Waltham, MA) Particles to load on Ion 540™ Chips, using the Ion 540™ Kit-Chef (Thermo Fisher Scientific, Waltham, MA). Sequencing was performed on an Ion S5™ Sequencer with Torrent Suite™ Software v6 (Thermo Fisher Scientific, Waltham, MA). The analyses were performed with a range of fold <−2 and >+2 and a p value <0.05, using Transcriptome Analysis Console Software (version 4.0.1), certified for AmpliSeq analysis (Thermo-Fisher). The transcriptomic data have been deposited as dataset on Mendeley data repository (reference number linking to the repository: Fiorucci, Stefano; Biagioli, Michele; Marchianò, Silvia; Di Giorgio, Cristina (2021), “Discovery of potent dual GPBAR1/CysLT1R modulator for the treatment of metabolic fatty liver disease,” Mendeley Data, V1, doi: 10.17632/6dnrk9fc72.1).

## O=C(O)c1cccc(-c2ccc(OCc3ccc4ccccc4n3)cc2)c1 [Compound 2, 4'-(quinolin-2-ylmethoxy)-[1,1′-biphenyl]-3-carboxylic acid]
  Gm31649 transcript Fold Change: 2.82
  Gm36796 transcript Fold Change: -2.15
  Gnat1 transcript Fold Change: -2.26
  Gngt1 transcript Fold Change: -2.64
  Gpnmb transcript Fold Change: -3.95
  Hnf4aos transcript Fold Change: 2.36
  Hnrnpa0 transcript Fold Change: -2.58
  Hspa5 transcript Fold Change: -2.37
  Igip transcript Fold Change: -2.32
  Il1b transcript Fold Change: -2.2
  Il1rn transcript Fold Change: -2.12
  Insig2 transcript Fold Change: -3.18
  Itgam transcript Fold Change: -5.37
  Kif20a transcript Fold Change: -2.25
  LOC108167447 transcript Fold Change: 2.42
  LOC108168323 transcript Fold Change: -2.25
  Lactb2 transcript Fold Change: -2.04
  Ly6d transcript Fold Change: -4.62
  Meg3 transcript Fold Change: 2.02
  Mettl9 transcript Fold Change: -2.22
  Mki67 transcript Fold Change: -2.36
  Mogat1 transcript Fold Change: -2.13
  Mthfd2 transcript Fold Change: -2.03
  Mvd transcript Fold Change: -2.06
  Nat8 transcript Fold Change: 2.38
  Neat1 transcript Fold Change: -2.87
  Npas2 transcript Fold Change: -3.98
  Nr4a1 transcript Fold Change: -2.25
  Nrep transcript Fold Change: 2.34
  Nuak2 transcript Fold Change: 2.15
  Pcbp1 transcript Fold Change: -4.32
  Pcp4l1 transcript Fold Change: 2.55
  Pdilt transcript Fold Change: 3.33
  Pdpn transcript Fold Change: -2.04
  Per3 transcript Fold Change: 4.98
  Plau transcript Fold Change: -4.02
  Plaur transcript Fold Change: -2.77
  Pld6 transcript Fold Change: 2.03
  Plekhg3 transcript Fold Change: 2.05
  Plxnc1 transcript Fold Change: -2.05
  Pnpla3 transcript Fold Change: -2.9
  Podn transcript Fold Change: 2.29
  Ppp1r3c transcript Fold Change: -2.05
  Prox1 transcript Fold Change: 2.06
  Psat1 transcript Fold Change: -2.69
  Ptgs2 transcript Fold Change: -4.87
  Raet1e transcript Fold Change: -2.18
  Raet1d transcript Fold Change: -2.32
  Ralbp1 transcript Fold Change: 3.61
  Rhob transcript Fold Change: -3.06
  Rrs1 transcript Fold Change: -2.27
  Saa4 transcript Fold Change: 5.34
  Sart3 transcript Fold Change: 2.37
  Sbk1 transcript Fold Change: 2.54
  Sec11c transcript Fold Change: -2.18
  Senp1 transcript Fold Change: 3.54
  Serpina7 transcript Fold Change: -2.84
  Serpine1 transcript Fold Change: -3.49
  Slc16a1 transcript Fold Change: -2.37
  Slc17a8 transcript Fold Change: -2.06
  Slc39a8 transcript Fold Change: -2.02
  Slc40a1 transcript Fold Change: -2.28
  Slc46a3 transcript Fold Change: 2.23
  Spon2 transcript Fold Change: -3.19
  Sqle transcript Fold Change: -2.72
  Stfa3 transcript Fold Change: -9.86
  Taok3 transcript Fold Change: 2.06
  Tk1 transcript Fold Change: 2.3
  Tmx1 transcript Fold Change: 2.28
  Tnf transcript Fold Change: -2.39
  Tnfrsf23 transcript Fold Change: -2.38
  Tnnc1 transcript Fold Change: 2.09
  Tsku transcript Fold Change: 2.15
  Ubqln2 transcript Fold Change: -2.65
  Uhrf1 transcript Fold Change: -2.03
  Upp2 transcript Fold Change: 2.5
  Usp2 transcript Fold Change: 3.94
  Wrn transcript Fold Change: 3.79
  Zfp101 transcript Fold Change: -2.1
  Zfp445 transcript Fold Change: 2.82
